Data reported in patent US9873680B2 (Gilead Sciences, Inc., priority 2014, dated 2018).
Like-named read-outs stand apart in the source and are kept apart here.

How the values were obtained:
[1] = Test B: Cytotoxicity Assay; type: cell-based; settings: human, uninfected MT-4 cells, CellTiter-Glo
Description: Test B: Cytotoxicity Assay Compound cytotoxicity and the corresponding CC50 values was determined using the same protocol as described in the antiviral assay (Test A) except that uninfected cells were used.

[2] = system: HIV-IIIb; test: Test A: Antiviral Assay in MT4 Cells; type: cell-based, HIV-1; settings: read-out: % inhibition at 0.2 μM (percent inhibition of virus-induced cell killing)
In short: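 Readout was CellTiter-Glo luminescence after 10 min room-temperature lysis, taken 5 days after plating at 37 °C. The 2000 MT-4 cells per well, mixed 1 h beforehand with HIV-IIIb (m.o.i. 0.003), went straight onto the diluted compound.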

[3] = Human immunodeficiency virus 1, MT4, 120 h, 0.2 μM drug concentration, MT-4 cells infected with HIV-IIIb, 5 days, values normalized to 100%, average over time

Structure (SMILES)	CC50 at 5 days [1] [µM]	inhibition at 0.2 µM [2, 3] [%]	inhibition at 0.2 µM ([2]; Human immunodeficiency virus 1, IIIB, MT4, 120 h) [%]
Cn1nc(NS(C)(=O)=O)c2c(Cl)ccc(-c3ccc(C#CC4(O)COC(C)(C)OC4)nc3[C@H](Cc3cc(F)cc(F)c3)NC(=O)Cn3nc(C(F)(F)F)c4c3C(F)(F)[C@@H]3C[C@H]43)c21 [Compound 74, N—((S)-1-(3-(4-chloro-1-methyl-3-(methylsulfonamido)-1H-indazol-7-yl)-6-((5-hydroxy-2,2-dimethyl-1,3-dioxan-5-yl)ethynyl)pyridin-2-yl)-2-(3,5-difluorophenyl)ethyl)-2-((3bS,4aR)-5,5-difluoro-3-(trifluoromethyl)-3b,4,4a,5-tetrahydro-1H-cyclopropa[3,4]cyclopenta[1,2-c]pyrazol-1-yl)acetamide]	8.62	77	–
Cn1nc(NS(C)(=O)=O)c2c(Cl)ccc(-c3ccc(C#CC4(O)CCCNC4)nc3[C@H](Cc3cc(F)cc(F)c3)NC(=O)Cn3nc(C(F)(F)F)c4c3C(F)(F)[C@@H]3C[C@H]43)c21 (stereo partly drawn) [Compound 75, N-((1S)-1-(3-(4-chloro-1-methyl-3-(methylsulfonamido)-1H-indazol-7-yl)-6-((3-hydroxypiperidin-3-yl)ethynyl)pyridin-2-yl)-2-(3,5-difluorophenyl)ethyl)-2-((3bS,4aR)-5,5-difluoro-3-(trifluoromethyl)-3b,4,4a,5-tetrahydro-1H-cyclopropa[3,4]cyclopenta[1,2-c]pyrazol-1-yl)acetamide]	5.59	81	–
Cn1nc(NS(C)(=O)=O)c2c(Cl)ccc(-c3ccc(C#CC4(C)CNCCO4)nc3[C@H](Cc3cc(F)cc(F)c3)NC(=O)Cn3nc(C(F)(F)F)c4c3C(F)(F)[C@@H]3C[C@H]43)c21 (stereo partly drawn) [Compound 76, N-((1S)-1-(3-(4-chloro-1-methyl-3-(methylsulfonamido)-1H-indazol-7-yl)-6-((2-methylmorpholin-2-yl)ethynyl)pyridin-2-yl)-2-(3,5-difluorophenyl)ethyl)-2-((3bS,4aR)-5,5-difluoro-3-(trifluoromethyl)-3b,4,4a,5-tetrahydro-1H-cyclopropa[3,4]cyclopenta[1,2-c]pyrazol-1-yl)acetamide]	6.67	93	–
Cn1nc(NS(C)(=O)=O)c2c(Cl)ccc(-c3ccc(C#CC4(C)CNCCO4)nc3[C@H](Cc3cc(F)cc(F)c3)NC(=O)Cn3nc(C(F)F)c4c3C(F)(F)[C@@H]3C[C@H]43)c21 (stereo partly drawn) [Compound 77, N-((1S)-1-(3-(4-chloro-1-methyl-3-(methylsulfonamido)-1H-indazol-7-yl)-6-((2-methylmorpholin-2-yl)ethynyl)pyridin-2-yl)-2-(3,5-difluorophenyl)ethyl)-2-((3bS,4aR)-3-(difluoromethyl)-5,5-difluoro-3b,4,4a,5-tetrahydro-1H-cyclopropa[3,4]cyclopenta[1,2-c]pyrazol-1-yl)acetamide]	7.7	90	–
Cn1cnc(C#Cc2ccc(-c3ccc(Cl)c4c(NS(C)(=O)=O)nn(C)c34)c([C@H](Cc3cc(F)cc(F)c3)NC(=O)Cn3nc(C(F)F)c4c3C(F)(F)[C@@H]3C[C@H]43)n2)c1 [Compound 78, N—((S)-1-(3-(4-chloro-1-methyl-3-(methylsulfonamido)-1H-indazol-7-yl)-6-((1-methyl-1H-imidazol-4-yl)ethynyl)pyridin-2-yl)-2-(3,5-difluorophenyl)ethyl)-2-((3bS,4aR)-3-(difluoromethyl)-5,5-difluoro-3b,4,4a,5-tetrahydro-1H-cyclopropa[3,4]cyclopenta[1,2-c]pyrazol-1-yl)acetamide]	> 36.6	87	–
Cn1nc(NS(C)(=O)=O)c2c(Cl)ccc(-c3ccc(C#CC(C)(C)n4ccnc4)nc3[C@H](Cc3cc(F)cc(F)c3)NC(=O)Cn3nc(C(F)(F)F)c4c3C(F)(F)[C@@H]3C[C@H]43)c21 [Compound 79B, N—((S)-1-(6-(3-(1H-imidazol-1-yl)-3-methylbut-1-yn-1-yl)-3-(4-chloro-1-methyl-3-(methylsulfonamido)-1H-indazol-7-yl)pyridin-2-yl)-2-(3,5-difluorophenyl)ethyl)-2-((3bS,4aR)-5,5-difluoro-3-(trifluoromethyl)-3b,4,4a,5-tetrahydro-1H-cyclopropa[3,4]cyclopenta[1,2-c]pyrazol-1-yl)acetamide]	11.5	93	–
Cn1nc(NS(C)(=O)=O)c2c(Cl)ccc(-c3ccc(C#CC(C)(C)n4ccnc4)nc3[C@H](Cc3cc(F)cc(F)c3)NC(=O)Cn3nc(C(F)F)c4c3C(F)(F)[C@@H]3C[C@H]43)c21 [Compound 80, N—((S)-1-(6-(3-(1H-imidazol-1-yl)-3-methylbut-1-yn-1-yl)-3-(4-chloro-1-methyl-3-(methylsulfonamido)-1H-indazol-7-yl)pyridin-2-yl)-2-(3,5-difluorophenyl)ethyl)-2-((3bS,4aR)-3-(difluoromethyl)-5,5-difluoro-3b,4,4a,5-tetrahydro-1H-cyclopropa[3,4]cyclopenta[1,2-c]pyrazol-1-yl)acetamide]	20.9	89	–
Cn1nc(NS(C)(=O)=O)c2c(Cl)ccc(-c3ccc(C#CC4(C)OCCn5ccnc54)nc3[C@H](Cc3cc(F)cc(F)c3)NC(=O)Cn3nc(C(F)(F)F)c4c3C(F)(F)[C@@H]3C[C@H]43)c21 (stereo partly shown) [Compound 81E]	> 57	–	87
Cn1nc(NS(C)(=O)=O)c2c(Cl)ccc(-c3ccc(C#CC4(C)OCCn5ccnc54)nc3[C@H](Cc3cc(F)cc(F)c3)NC(=O)Cn3nc(C(F)F)c4c3C(F)(F)[C@@H]3C[C@H]43)c21 (stereo partly drawn) [Compound 82, N-((1S)-1-(3-(4-chloro-1-methyl-3-(methylsulfonamido)-1H-indazol-7-yl)-6-((8-methyl-6,8-dihydro-5H-imidazo[2,1-c][1,4]oxazin-8-yl)ethynyl)pyridin-2-yl)-2-(3,5-difluorophenyl)ethyl)-2-((3bS,4aR)-3-(difluoromethyl)-5,5-difluoro-3b,4,4a,5-tetrahydro-1H-cyclopropa[3,4]cyclopenta[1,2-c]pyrazol-1-yl)acetamide]	29.6	90	–
Cn1nc(NS(C)(=O)=O)c2c(Cl)ccc(-c3ccc(C#C[C@]4(C)CNCCO4)nc3[C@H](Cc3cc(F)cc(F)c3)NC(=O)Cn3nc(C(F)(F)F)c4c3C(F)(F)[C@@H]3C[C@H]43)c21 [Compound 83G, N—((S)-1-(3-(4-chloro-1-methyl-3-(methylsulfonamido)-1H-indazol-7-yl)-6-(((R)-2-methylmorpholin-2-yl)ethynyl)pyridin-2-yl)-2-(3,5-difluorophenyl)ethyl)-2-((3bS,4aR)-5,5-difluoro-3-(trifluoromethyl)-3b,4,4a,5-tetrahydro-1H-cyclopropa[3,4]cyclopenta[1,2-c]pyrazol-1-yl)acetamide]	6.57	90	–
Cn1nc(NS(C)(=O)=O)c2c(Cl)ccc(-c3ccc(C#C[C@]4(C)CNCCO4)nc3[C@H](Cc3cc(F)cc(F)c3)NC(=O)Cn3nc(C(F)F)c4c3C(F)(F)[C@@H]3C[C@H]43)c21 [Compound 84, N—((S)-1-(3-(4-chloro-1-methyl-3-(methylsulfonamido)-1H-indazol-7-yl)-6-(((R)-2-methylmorpholin-2-yl)ethynyl)pyridin-2-yl)-2-(3,5-difluorophenyl)ethyl)-2-((3bS,4aR)-3-(difluoromethyl)-5,5-difluoro-3b,4,4a,5-tetrahydro-1H-cyclopropa[3,4]cyclopenta[1,2-c]pyrazol-1-yl)acetamide]	6.9	88	–
